Data from patent US10407399B2, “Ion-activated photolabile compounds” (HOWARD HUGHES MEDICAL INSTITUTE, priority 2015, dated 2019).
Values joined by “and” are separate entries in the source; they are usually repeats but may differ in a detail not shown here. Identical values can stand only once.

Key:
[1] = Absorption spectrum in buffers containing varying [Ca^2+]; type: physicochemical
Excerpt: The absorption spectrum of 402 was first examined in buffers containing varying [Ca^2+] (FIG. 19A). […] A small (<5%) but significant increase in absorption around 350 nm was also observed when calcium ion concentration is raised. However, the coumarin moiety dominates absorption in the UV with an extinction coefficient (e)=2.4×10^4 M^−1 cm^−1 at 350 nm. These absorbance changes indicate that chelation of calcium causes a switch from the colored quinoid form to the UV-absorbing aromatic form (FIG. 3).
(§1) All measurements were taken at ambient temperature (23±2° C.). […] Spectroscopy was performed using 1-cm path length quartz or polymethacrylate cuvettes (Starna or Fisher). Absorption measurements were recorded on a Cary Model 100 spectrometer (Varian). Fluorescence measurements spectra were recorded on a Cary Eclipse fluorometer (Varian). Buffer pH was adjusted with KOH. Curve fitting was accomplished with GraphPad Prism 5.

[2] = Determination of photochemical quantum yield (365 nm irradiation, fluorescence of released fluorophore); type: physicochemical; conditions: for photochemical quantum yield (Φ) in the presence of Ca^2+: 10 mM CaCl2, 30 mM MOPS pH 7.2, 100 mM KCl; for photochemical quantum yield (Φ) in the presence of Ca^2+ / photochemical quantum yield (Φ) in the absence of Ca^2+: 365 nm; for photochemical quantum yield (Φ) in the absence of Ca^2+: 10 mM EGTA, 30 mM MOPS pH 7.2, 100 mM KCl; for enhancement in photochemical quantum yield upon Ca^2+ binding: presence vs absence of Ca^2+
Description: as §1
Photochemistry was performed in 1-cm path length/3.5 mL quartz cuvettes (Starna) in a Luzchem LZC 4V photoreactor equipped with 365 nm UV lamps, a carousel, and a timer. The irradiation was determined by potassium ferrioxalate actinometry.^3 A solution of 60 mM K3Fe(C2O4)3 was irradiated using the photoreactor setup. Released Fe^2+ was determined by complexometry with 1,10 phenanthroline. Using the known photochemical quantum yield of this process, we determined the photon flux (I)=[…]. Samples (10 μM, 3.5 mL) were irradiated in either zero calcium buffer (30 mM MOPS pH 7.2, 10 mM EGTA, 100 mM KCl) or calcium-containing buffer (30 mM MOPS pH 7.2, 10 mM CaCl2, 100 mM KCl) and a small aliquot (30 μL) was removed and diluted 100-fold in matching buffer. The fluorescence of these samples was then measured (coumarin 402: λex/λem=402/447 nm; Tokyo Green compound S13: λex/λem=496/520 nm). The quantum yield (Φ, mol/ein) was determined by fitting a plot of fluorescence vs. irradiation time to a one-phase association described by equation 1: Ft=Fmax−Fmax(e^−IσΦt) (1) where Fmax=maximal fluorescence, t=time (min), Ft=fluorescence at time t, I=irradiation (ein/min·cm^2), and σ=decadic extinction coefficient (cm^2/mol; 1000-fold higher than the value with units of M^−1 cm^−1 based on cuvette geometry). For compound 402 we determined Φ=4.8±0.2% (mean±SE) in the presence of 10 mM Ca^2+ and Φ=0.0079±0.0003% in the presence of 10 mM EGTA (FIG. 19B). For compound S13 we found Φ=1.63±0.05% in the presence of 10 mM Ca^2+ and Φ=0.0110±0.0004% in the presence of 10 mM EGTA (FIG. 20A).

[3] = test system: cultured neurons; assay: Light-gated integration of Ca^2+ evoked by electrical stimulation; type: cell-based, rat; conditions: for rate k of increase in cellular fluorescence versus irradiation time: n=20
Description: The present compound was then utilized to measure calcium ion changes in neurons evoked by electrical activity. Low-affinity reversible Ca^2+ indicators are advantageous for use in biological systems as their low buffering capacity preserves native calcium ion dynamics. Nevertheless, poor signal-to-background ratios of such indicators may restricts their utility to subcellular compartments undergoing extremely high calcium flux (e.g., dendritic spines). […] Cells were incubated with AM ester 403 and subjected to the photoactivation imaging protocol. In one population of cells neuronal action potential firing was elicited by field stimulation at 80 Hz.
(§2) HEK293T/17 cells (ATCC) were cultured according to instructions in poly-D-lysine-coated 24-well CellBind plates (Corning) in Dulbecco's modified eagle medium (DMEM; Invitrogen) supplemented with 10% v/v fetal bovine serum (FBS; Invitrogen) and maintained at 37° C. in a humidified 5% CO2 v/v environment. Primary rat hippocampal neurons were prepared and cultured as described previously. Imaging buffer for HEK293T/17 cells consisted of Dulbecco's phosphate buffered saline (DPBS; Invitrogen). Imaging buffer for cultured neurons consisted of: 145 mM NaCl, 2.5 KCl, 10 mM glucose, 10 mM HEPES pH 7.4, 2 mM CaCl2, and 1 mM MgCl2. To load cells with the dosimeter, a stock solution of 403 (1 mM) in DMSO containing 10% w/v Pluronic F-127 (Sigma) was added to a final concentration of 10 μM in imaging buffer. Cells were incubated in this solution for 1 h at 37° C., after which the cells were washed with imaging buffer (3×) and imaged. The final imaging buffer wash for cultured neurons additionally contained pharmacological agents (10 μM CNQX, 10 μM (R)-CPP, 10 μM gabazine, and 1 mM (S)-MCPG; Tocris) to block spontaneous cellular activity.
(§3) Cells were imaged on a Olympus IX-81 microscope using a 10× or 20× objective and a DAPI filter set (Semrock DAPI-5060C-000; excitation: 352-402 nm, dichroic cutoff: 409 nm, emission: 417-477 nm) filtering a mercury arc lamp. Excitation/photoactivation light was attenuated using a neutral density filter giving a light intensity of 60 mW/cm^2. To raise intracellular calcium ion levels (FIGS. 19B, 21B, and 22B), cells were incubated with 10 μM ionomycin (Sigma) and 4 mM CaCl2 for 2 min prior to imaging.
Cultured neurons loaded with compound 403 were stimulated electrically to induce action potential firing at 80 Hz for one second prior to and during illumination with excitation/photoactivation light. A Grass S48 Stimulator (Grass Technologies) was used with a custom-built platinum wire field stimulation electrode.

[4] = test system: cultured hippocampal neurons; assay: Live cell photoactivation imaging of neurons with or without ionomycin; type: cell-based, rat; conditions: for rate k of cellular fluorescence increase versus irradiation time: 10 μM, 1 h loading, 365 nm
Description: The utility of the embodied system was then observed in a cellular context. The hexa-acetoxymethyl (AM) ester 403 of compound 402 was prepared (FIG. 8). This membrane-permeant compound enabled loading of cultured hippocampal neurons with the light-gated chemodosimeter. The overlap of the photouncaging wavelength (λ=351 nm) and the excitation spectra (λmax=402 nm) of the coumarin allowed simultaneous imaging and activation with a single light source centered at 365 nm.
as §2, §3

[5] = Determination of Kd from fluorescence after photoactivation as a function of [Ca^2+]; type: binding; conditions: methoxy replaced with pyrrolidine, versus 402; readout not stated
Description: as §1
For [Ca^2+]<40 μM, the free calcium concentration was controlled by a commercial EGTA buffer system (Invitrogen). […] For [Ca^2+]>40 μM, buffers were prepared with 1 mM EGTA and excess CaCl2 in 30 mM MOPS pH 7.2 and 100 mM KCl. Different buffer solutions containing 100 nM of 402 or S13 were irradiated in clean glass vials for 1 min using the photoreactor setup described above. The samples were then transferred to a black, clear bottom, 96-well polystyrene microplate with a nonbinding surface coating (Corning). Fluorescence was read from the bottom on a FlexStation3 fluorescence microplate reader (Molecular Devices; for coumarin 402: λex/λem=402/447 nm; for Tokyo Green compound S13: λex/λem=496/520 nm). The plot of fluorescence vs. [Ca^2+] was fit to one site-specific binding curve to determine the Kd. Found: 28.3±0.6 μM (±SE) for 402 and 28.0±0.8. μM for S13.

COc1ccc(N(CC(=O)O)CC(=O)O)c(OCCOc2cc([N+](=O)[O-])c(COc3ccc4cc(C(=O)NC5CCC(N(CC(=O)O)CC(=O)O)CC5)c(=O)oc4c3)cc2N(CC(=O)O)CC(=O)O)c1 (stereo not shown) [compound 402, 2,2′((2-(2-(2-(Bis(carboxymethyl)amino)-4-(((3-(((1r,4r)-4-(bis(carboxymethyl)amino)cyclohexyl)carbamoyl)-2-oxo-2H-chromen-7-yl)oxy)methyl)-5-nitrophenoxy)ethoxy)-4-methoxyphenyl)azanediyl)diacetic acid]
increase in absorption around 350 nm when calcium ion concentration is raised [1]: < 5% | visible absorption at 430 nm as [Ca^2+] increases [1]: dramatic decrease | extinction coefficient ([1]; at 350 nm): 24000 M⁻¹ cm⁻¹ | photochemical quantum yield (Φ) in the presence of Ca^2+ [2]: 4.8% and 4.8±0.2% | photochemical quantum yield (Φ) in the absence of Ca^2+ [2]: 0.008% and 0.0079±0.0003% | Ca^2+ dependence of uncaging photochemistry ([2]; fluorescence of released coumarin vs 365 nm irradiation time, 10 mM CaCl2 or 10 mM EGTA): efficient photochemistry was observed only in the presence of calcium | enhancement in photochemical quantum yield upon Ca^2+ binding [2]: 600 fold

COc1ccc(N(CC(=O)OCOC(C)=O)CC(=O)OCOC(C)=O)c(OCCOc2cc([N+](=O)[O-])c(COc3ccc4cc(C(=O)N[C@H]5CC[C@H](N(CC(=O)OCOC(C)=O)CC(=O)OCOC(C)=O)CC5)c(=O)oc4c3)cc2N(CC(=O)OCOC(C)=O)CC(=O)OCOC(C)=O)c1 [compound 403, Bis(acetoxymethyl) 2,2′-((2-(2-(2-(bis(2-(acetoxymethoxy)-2-oxoethyl)amino)-4-(((3-(((1r,4r)-4-(bis(2-(acetoxymethoxy)-2-oxoethyl)amino)cyclohexyl)carbamoyl)-2-oxo-2H-chromen-7-yl)oxy)methyl)-5-nitrophenoxy)ethoxy)-4-methoxyphenyl)azanediyl)diacetate]
permanent increase in cellular fluorescence ([3]; field stimulation at 80 Hz): 200% | rate increase in cellular fluorescence relative to unstimulated cells ([3]; field stimulation at 80 Hz): 4 fold | rate k of increase in cellular fluorescence versus irradiation time ([3]; with field stimulation at 80 Hz): 0.133 s⁻¹ | rate k of increase in cellular fluorescence versus irradiation time ([3]; without electrical stimulation): 0.0325 s⁻¹ | increase in the accumulation of cellular fluorescence ([4]; cells pretreated with ionomycin vs control cells): 40 fold | fluorescence increase on illumination of control cells ([4]; control cells without ionomycin): did not elicit significant fluorescence increase | rate k of cellular fluorescence increase versus irradiation time ([4]; ionomycin-treated neurons): 0.240 s⁻¹ | rate k of cellular fluorescence increase versus irradiation time ([4]; untreated neurons): 0.0060 s⁻¹

COc1ccc(-c2c3ccc(=O)cc-3oc3cc(OCc4cc(N(CC(=O)O)CC(=O)O)c(OCCOc5cc(OC)ccc5N(CC(=O)O)CC(=O)O)cc4[N+](=O)[O-])ccc23)c(C)c1 [compound S13, 2,2′-((2-(2-(2-(Bis(carboxymethyl)amino)-4-(((9-(4-methoxy-2-methylphenyl)-3-oxo-3H-xanthen-6-yl)oxy)methyl)-5-nitrophenoxy)ethoxy)-4-methoxyphenyl)azanediyl)diacetic acid]
photochemical quantum yield (Φ) in the presence of Ca^2+ [2]: 1.6% and 1.63±0.05% | photochemical quantum yield (Φ) in the absence of Ca^2+ [2]: 0.011% and 0.0110±0.0004% | enhancement in photochemical quantum yield upon Ca^2+ binding [2]: 150 fold

O=C(O)CN(CC(=O)O)c1ccc(N2CCCC2)cc1OCCOc1cc([N+](=O)[O-])c(COc2ccc3cc(C(=O)NC4CCC(N(CC(=O)O)CC(=O)O)CC4)c(=O)oc3c2)cc1N(CC(=O)O)CC(=O)O (stereo not shown) [compound of FIG. 14, where R═H, 2,2′-((2-(2-(2-(Bis(carboxymethyl)amino)-4-(((3-(((1r,4r)-4-(bis(carboxymethyl)amino)cyclohexyl)carbamoyl)-2-oxo-2H-chromen-7-yl)oxy)methyl)-5-nitrophenoxy)ethoxy)-4-(pyrrolidin-1-yl)phenyl)azanediyl)diacetic acid]
effect of the modification on calcium affinity [5]: did not increase
